From patent publication US5486595A, “Tumor necrosis factor inhibitors” (Centecor, Inc., priority 1994, dated 1996)
Where a SMILES comes first, the peptide text is derived from it.

target: T1, human TNFα (Homo sapiens, UniProt P01375); experiment: p55 Receptor/IgG Fusion Protein Binding Assay (inhibition of TNFα capture by p55-Ig coated plate); conditions: peptide 1 mM; TNFα 25 ng/ml
T1 construct: purchased Biosource, Camarillo, Calif
Method: This assay was designed to identify peptides which bind to human TNFα and thereby prevent the capture of the TNFα by a microtiter plate coated with p55-Ig fusion protein. A constant concentration of human TNFα is preincubated with the test peptide and then incubated on the p55-Ig coated microtiter wells. Bound TNFα is detected using a specific antisera and an alkaline phosphatase-conjugated probe.
A 96-well, U-bottom polyvinylchloride microtiter plate was coated with 50 μl/well of p55-Ig fusion protein at 5 μg/ml in 0.01M sodium phosphate, 0.15M sodium chloride (PBS) by incubation overnight at 4° C. or 2 hours at 37° C. The fusion protein, which consists of a p55 TNF receptor protein portion and an IgG portion, can be produced as disclosed in U.S. application Ser. No. 08/010,406 filed Jan. 29, 1993 which is incorporated herein by reference. The plate was washed three times with 0.05% Tween-20 in PBS, then blocked, by adding 150 μl/well of assay buffer (10 mM N-2-hydroxyethylpiperazine-N'-[…] (HEPES) pH 7.2, containing 0.1% porcine gelatin, 0.1% Tween-80, and 0.01% sodium azide) and continuing incubation for 1 hour at 37° C. or at 4° C. for 1-7 days.
Lyophilized peptides to be tested were weighed in tared 12×75 mm polystyrene tubes and reconstituted to a concentration of 1.2 mM with assay buffer. Each suspension was sonicated in a water bath for 1-5 minutes and vortexed 15-30 seconds to disperse large particles. Serial dilutions of each peptide suspension were prepared using assay buffer in a 96-well polystyrene microtiter plate. Additional wells received Fab fragment of the mouse/human monoclonal anti-human TNFα antibody cA2 (positive control) or assay buffer (negative control). […] The polystyrene dilution plate was then sealed and incubated 1 hour at room temperature on an orbital mixer set at moderate speed.
Following the sample preincubation, blocker was discarded from the p55-Ig coated plate and blotted dry. Aliquots (50 μl) of each peptide or control were transferred into duplicate wells on the p55-Ig coated plate which was then sealed and incubated i hour at 37° C. Duplicate wells containing only assay buffer were included as a plate blank. After incubation the p55-Ig plate was washed three times with 0.05% Tween-20 in PBS.
To detect TNFα captured by the p55-Ig plate, all wells were incubated in succession with polyclonal rabbit anti-human TNFα (Genzyme, Boston, Mass.; 1:500 in assay buffer, 50 μl/well), biotinylated goat anti-rabbit Ig (H&L) (Vector Laboratories, Burlingame, Calif.; 1 μg/ml in assay buffer, 50 μl/well) and streptavidin-alkaline phosphatase conjugate (Pierce, Rockford, Ill.; 1 μg/ml in assay buffer, 50 μl/well). All incubations were for 1 hour at 37° C. and after each incubation the plate was washed three times with 0.05% Tween-20 in PBS. Fifty microliters of alkaline phosphatase substrate solution (alkaline buffer (Sigma, St. Louis, Mo.) diluted 1:500 in deionized water plus one 5 mg tablet of p-nitrophenyl phosphate (Sigma, St. Louis, Mo.) per 5 ml of diluted buffer) was added to all wells and incubation continued for 20 minutes at room temperature. Color development was stopped by adding to all wells 50 μl of 3N sodium hydroxide. The optical density (OD) at 405 nm was measured on a microtiter plate reader (Molecular Devices Vmax plate reader), with the plate blank wells subtracted as background. The activity of each peptide was then expressed as the percent inhibition of TNFα capture by the p55-Ig plate, relative to the amount of TNFα captured in wells containing only assay buffer (negative control), as follows: % inhibition=100-((mean OD peptide/mean OD negative control)×100).
The inhibition of binding of TNFα to p55TNFr-IgG chimeric construct was performed as described above using several embodiments of the invention. The peptides were tested at a concentration of 1 mM.

T1 sequence (P01375 77-233 limits assumed): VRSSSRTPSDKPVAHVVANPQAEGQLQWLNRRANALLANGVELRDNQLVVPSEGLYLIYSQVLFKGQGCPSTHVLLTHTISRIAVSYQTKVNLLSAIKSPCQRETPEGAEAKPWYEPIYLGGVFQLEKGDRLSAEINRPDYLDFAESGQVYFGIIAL

First: SEQ ID NO:42: peptide of the invention that inhibits TNFα; sequence not printed (SSDQVETQAATREQN)
Second: SEQ ID NO:38: peptide of the invention that inhibits TNFα; sequence not printed (YTQLWNWVPEALSAG)
The “inhibition of binding of TNFα to p55TNFr-IgG chimeric construct” value of the first is lower: 40% for the first, 64% for the second.

same assay, conditions: peptide 1 mM; TNFα 25 ng/ml; read-out: inhibition of binding of TNFα to p55TNFr-IgG chimeric construct

`C[C@H](NC(=O)[C@@H](NC(=O)[C@H](CO)NC(=O)[C@@H]1CCCN1C(=O)[C@H](CCC(=O)O)NC(=O)[C@@H]1CCCN1C(=O)[C@@H](NC(=O)[C@@H]1CCCN1C(=O)[C@H](CCC(N)=O)NC(=O)[C@@H](NC(=O)[C@H](Cc1c[nH]cn1)NC(=O)[C@H](CCC(N)=O)NC(=O)[C@@H](N)CO)[C@@H](C)O)[C@@H](C)O)[C@@H](C)O)C(=O)N1CCC[C@H]1C(=O)N[C@@H](CO)C(N)=O` [SEQ ID NO:58] (H-SQHTQPTPEPSTAPS-NH2) and `C[C@@H](O)[C@H](NC(=O)[C@H](CO)NC(=O)[C@@H]1CCCN1C(=O)[C@H](CCC(=O)O)NC(=O)[C@@H]1CCCN1C(=O)[C@@H](NC(=O)[C@@H]1CCCN1C(=O)[C@H](CCC(N)=O)NC(=O)[C@@H](NC(=O)[C@H](Cc1c[nH]cn1)NC(=O)[C@H](CCC(N)=O)NC(=O)[C@H](CO)NC(=O)[C@H](CCCNC(=N)N)NC(=O)[C@@H](NC(=O)[C@@H](N)CO)[C@@H](C)O)[C@@H](C)O)[C@@H](C)O)C(N)=O` [SEQ ID NO:57] (H-STRSQHTQPTPEPST-NH2) are the same in inhibition at 1000 µM: 72% for the first, 72% for the second.

Going from `CC(C)C[C@H](NC(=O)[C@H](CCCCN)NC(=O)[C@@H](NC(=O)[C@H](CS)NC(=O)[C@H](CCC(=O)O)NC(=O)[C@H](CC(C)C)NC(=O)[C@H](CO)NC(=O)[C@H](CCCCN)NC(=O)[C@H](CCCCN)NC(=O)[C@H](CS)NC(=O)[C@H](CC(N)=O)NC(=O)[C@H](CO)NC(=O)[C@H](CS)NC(=O)[C@H](CO)NC(=O)[C@@H](NC(=O)[C@H](CS)NC(=O)[C@H](CCC(=O)O)NC(=O)[C@H](CC(N)=O)NC(=O)[C@H](CCC(=O)O)NC(=O)[C@@H](N)CCCNC(=N)N)C(C)C)[C@@H](C)O)C(=O)O` [SEQ ID NO:20, Arginyl-glutamyl-asparaginyl-glutamyl-cysteinyl-valyl-seryl-cysteinyl-seryl-asparaginyl-cysteinyl-lysyl-lysyl-seryl-leucyl-glutamyl-cysteinyl-threonyl-lysyl-leucine] (H-RENECVSCSNCKKSLECTKL-OH) to `CC[C@H](C)[C@H](NC(=O)[C@H](CCC(N)=O)NC(=O)[C@@H]1CCCN1C(=O)[C@H](CC(C)C)NC(=O)[C@H](C)NC(=O)[C@@H](N)CC(C)C)C(=O)N[C@@H](CCC(=O)O)C(=O)N[C@@H](CC(N)=O)C(=O)N[C@H](C(=O)N[C@@H](CCCCN)C(=O)NCC(=O)N[C@H](C(=O)N[C@@H](CCC(=O)O)C(=O)N[C@@H](CC(=O)O)C(=O)N[C@@H](CO)C(N)=O)[C@@H](C)O)C(C)C` [SEQ ID NO:22, Leucyl-alanyl-leucyl-prolyl-glutaminyl-isoleucyl-glutamyl-asparaginyl-valyl-lysyl-glycyl-threonyl-glutamyl-aspartyl-serine Amide] (H-LALPQIENVKGTEDS-NH2), the inhibition at 1000 µM rises from 26% to 34%.

First: CC(=O)N[C@@H](CCC(N)=O)C(=O)N[C@@H](Cc1ccc(O)cc1)C(=O)N[C@@H](CCCNC(=N)N)C(=O)N[C@@H](Cc1c[nH]cn1)C(=O)N[C@@H](Cc1ccc(O)cc1)C(=O)N[C@@H](Cc1c[nH]c2ccccc12)C(=O)N[C@@H](CO)C(=O)N[C@@H](CCC(=O)O)C(=O)N[C@@H](CC(N)=O)C(=O)N[C@@H](CC(C)C)C(=O)N[C@@H](Cc1ccccc1)C(=O)N[C@@H](CCC(N)=O)C(=O)N[C@@H](C)C(=O)N[C@@H](Cc1ccccc1)C(=O)N[C@@H](CC(N)=O)C(N)=O [SEQ ID NO:11, Acetyl-glutaminyl-tyrosyl-arginyl-histidyl-tyrosyl-tryptophyl-seryl-glutamyl-asparaginyl-leucyl-phenylalanyl-glutaminyl-alanyl-phenylalanyl-asparagineAmide]
Second: CC(C)C[C@H](NC(=O)[C@H](Cc1ccccc1)NC(=O)[C@H](Cc1ccccc1)NC(=O)CNC(=O)[C@H](C)NC(=O)[C@H](Cc1c[nH]cn1)NC(=O)[C@H](C)NC(=O)[C@@H](NC(=O)[C@H](C)NC(=O)[C@@H](NC(=O)[C@@H](N)[C@@H](C)O)C(C)C)[C@@H](C)O)C(=O)N[C@@H](CCCNC(=N)N)C(=O)N[C@@H](CCC(=O)O)C(=O)N[C@@H](CC(N)=O)C(=O)N[C@@H](CCC(=O)O)C(N)=O [SEQ ID NO:17] (H-TVATAHAGFFLRENE-NH2)
The inhibition at 1000 µM of the first is lower: 27% for the first, 59% for the second.

Going from `CC(=O)N[C@@H](CC(C)C)C(=O)N[C@@H](Cc1ccccc1)C(=O)N[C@@H](CCC(N)=O)C(=O)N[C@@H](C)C(=O)N[C@@H](Cc1ccccc1)C(=O)N[C@@H](CC(N)=O)C(=O)N[C@@H](C)C(=O)N[C@@H](CO)C(=O)N[C@@H](CC(C)C)C(=O)N[C@@H](C)C(=O)N[C@@H](CC(C)C)C(=O)N[C@@H](CC(N)=O)C(=O)NCC(=O)N[C@H](C(=O)N[C@H](C(N)=O)C(C)C)[C@@H](C)O` [SEQ ID NO:12, Acetyl-leucyl-phenylalanyl-glutaminyl-alanyl-phenylalanyl-asparaginyl-alanyl-seryl-leucyl-alanyl-leucyl-asparaginyl-glycyl-threonyl-valine Amide] (Ac-LFQAFNASLALNGTV-NH2) to `C[C@H](NC(=O)[C@@H](NC(=O)[C@H](Cc1ccccc1)NC(=O)[C@H](CO)NC(=O)CNC(=O)[C@H](CO)NC(=O)[C@H](CCC(=O)O)NC(=O)[C@H](C)NC(=O)[C@H](CCC(=O)O)NC(=O)[C@H](CCCNC(=N)N)NC(=O)[C@H](C)NC(=O)[C@H](CC(=O)O)NC(=O)[C@@H](NC(=O)[C@H](CC(=O)O)NC(=O)[C@@H](N)CCC(N)=O)[C@@H](C)O)[C@@H](C)O)C(N)=O` [SEQ ID NO:4, Glutaminyl-aspartyl-threonyl-aspartyl-alanyl-arginyl-glutamyl-alanyl-glutamyl-seryl-glycyl-seryl-phenylalanyl-threonyl-alanine Amide] (H-QDTDAREAESGSFTA-NH2), the inhibition at 1000 µM rises from 40% to 53%.

Going from `CC(C)[C@H](NC(=O)[C@H](CCCCN)NC(=O)[C@H](C)NC(=O)[C@@H](N)Cc1c[nH]cn1)C(=O)N[C@@H](Cc1ccccc1)C(=O)N[C@@H](C)C(=O)N[C@H](C(=O)N[C@@H](CCCCN)C(=O)N[C@H](C(=O)N[C@@H](CO)C(=O)N[C@@H](CC(=O)O)C(=O)N[C@H](C(=O)N[C@H](C(=O)N[C@@H](C)C(=O)N[C@@H](CC(=O)O)C(N)=O)C(C)C)[C@@H](C)O)[C@@H](C)O)[C@@H](C)O` [SEQ ID NO:31] (H-HAKVFATKTSDTVAD-NH2) to `CC(C)C[C@H](NC(=O)[C@H](CCCNC(=N)N)NC(=O)[C@H](C)NC(=O)[C@@H](NC(=O)[C@H](CO)NC(=O)CNC(=O)[C@@H]1CCCN1C(=O)[C@H](CCC(=O)O)NC(=O)[C@@H]1CCCN1C(=O)[C@H](C)NC(=O)[C@H](Cc1ccc(O)cc1)NC(=O)[C@@H]1CCCN1C(=O)[C@@H](NC(=O)[C@@H](N)Cc1ccccc1)[C@@H](C)O)[C@@H](C)O)C(=O)N[C@@H](CCCNC(=N)N)C(N)=O` [SEQ ID NO:25] (H-FTPYAPEPGSTARLR-NH2), the inhibition at 1000 µM rises from 68% to 69%.

With `CC(C)C[C@H](NC(=O)[C@H](Cc1ccccc1)NC(=O)[C@H](CO)NC(=O)[C@@H](NC(=O)[C@H](CO)NC(=O)[C@@H]1CCCN1C(=O)[C@H](C)NC(=O)[C@@H](NC(=O)[C@H](CO)NC(=O)[C@@H]1CCCN1C(=O)[C@H](CCC(=O)O)NC(=O)[C@@H]1CCCN1C(=O)[C@@H](N)[C@@H](C)O)[C@@H](C)O)[C@@H](C)O)C(=O)N[C@@H](CC(C)C)C(=O)N1CCC[C@H]1C(N)=O` [SEQ ID NO:60] (H-TPEPSTAPSTSFLLP-NH2) the inhibition at 1000 µM was 73%.

same assay, conditions: various concentrations of peptide

In the case of `CC(=O)N[C@@H](CCC(N)=O)C(=O)N[C@@H](Cc1ccc(O)cc1)C(=O)N[C@@H](CCCNC(=N)N)C(=O)N[C@@H](Cc1c[nH]cn1)C(=O)N[C@@H](Cc1ccc(O)cc1)C(=O)N[C@@H](Cc1c[nH]c2ccccc12)C(=O)N[C@@H](CO)C(=O)N[C@@H](CCC(=O)O)C(=O)N[C@@H](CC(N)=O)C(=O)N[C@@H](CC(C)C)C(=O)N[C@@H](Cc1ccccc1)C(=O)N[C@@H](CCC(N)=O)C(=O)N[C@@H](C)C(=O)N[C@@H](Cc1ccccc1)C(=O)N[C@@H](CC(N)=O)C(N)=O` [SEQ ID NO:11, Acetyl-glutaminyl-tyrosyl-arginyl-histidyl-tyrosyl-tryptophyl-seryl-glutamyl-asparaginyl-leucyl-phenylalanyl-glutaminyl-alanyl-phenylalanyl-asparagineAmide], the “dose dependent inhibition of TNFα (FIG. 1)” value is reported as “dose dependent inhibition”.
